Reference: patent publication US20100120311A1, “METHOD FOR PROVIDING TEXTILES WITH DESENSITIZED SILVER COMPONENTS” (priority 2006, published 2010)

Test: Visual assessment of discoloration on exposure to light
Details: benzotriazole up to 5 g/g of silver ions, hydroxylamine hydrochloride up to 3 g/g of silver ions, without pinacryptol yellow

| SMILES | suppression of discoloration of formulation and textile by stabilizer |
| --- | --- |
| c1ccc2[nH]nnc2c1 [benzotriazole] | not capable, in the concentration used, of permanently suppressing either the discoloration of the formulation itself or the discoloration of the textile |
| Cl.NO [hydroxylamine hydrochloride] | not capable, in the concentration used, of permanently suppressing either the discoloration of the formulation itself or the discoloration of the textile |
